From article PMC10586451, “Design, Synthesis, Pharmacological Activities, Structure–Activity Relationship, and In Silico Studies of Novel 5-Substituted-2-(morpholinoimino)-thiazolidin-4-ones” (ACS Omega, 2023)

Columns and labels:
[1] = DPPH radical scavenging assay; details: mean ± SEM of three parallel measurements
Experimental: (§1) DMSO solutions of four different concentrations (12.5, 25, 50, and 100 μM) of the synthesized compound 1–26 were prepared. DMSO was used as a control, while BHA and α-TOC were used as antioxidant standards.

[2] = ABTS cation radical scavenging assay; details: mean ± SEM of three parallel measurements
Experimental: as §1

[3] = β-carotene-linoleic acid assay (antioxidant); details: mean ± SEM of three parallel measurements
Experimental: as §1

[4] = CUPRAC assay (Cu(II) reducing power); details: concentration at 0.500 absorbance; mean ± SEM
Experimental: as §1

[5] = target: T1, butyrylcholinesterase (BChE) (Equus caballus, UniProt P81908); assay: biochemical; details: for SI for BChE: Selectivity index: IC50 for AChE/IC50 for BChE; for IC50: mean ± SEM of three parallel measurements
T1 construct: butyrylcholinesterase (BChE) from horse serum; from tissue; host or cells: horse serum
T1 sequence (P81908 whole entry): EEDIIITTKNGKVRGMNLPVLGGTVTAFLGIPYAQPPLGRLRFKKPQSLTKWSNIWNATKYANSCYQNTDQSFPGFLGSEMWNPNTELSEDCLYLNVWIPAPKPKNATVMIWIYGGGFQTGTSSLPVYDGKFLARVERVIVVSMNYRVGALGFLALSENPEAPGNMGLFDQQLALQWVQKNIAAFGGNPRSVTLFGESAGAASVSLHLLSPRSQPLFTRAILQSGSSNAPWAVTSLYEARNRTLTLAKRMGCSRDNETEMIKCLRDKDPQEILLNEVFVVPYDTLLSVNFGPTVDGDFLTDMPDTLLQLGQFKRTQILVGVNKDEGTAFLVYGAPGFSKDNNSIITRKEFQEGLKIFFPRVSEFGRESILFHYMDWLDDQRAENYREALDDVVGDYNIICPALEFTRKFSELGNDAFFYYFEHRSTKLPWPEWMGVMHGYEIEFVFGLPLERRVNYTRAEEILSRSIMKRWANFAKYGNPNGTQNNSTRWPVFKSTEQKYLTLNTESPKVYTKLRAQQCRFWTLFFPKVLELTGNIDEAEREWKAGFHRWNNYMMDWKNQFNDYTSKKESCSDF
Experimental: (§2) Anticholinesterase activity of all was performed according to the Ellman’s method using a 96-well microplate reader. Acetylcholinesterase (AChE) from electric eel and butyrylcholinesterase (BChE) from horse serum were used. Acetylthiocholine iodide and butyrylthiocholine chloride were utilized as substrates. DTNB (5,50-dithiobis(2-nitrobenzoic) acid was used as a coloring agent to measure the anticholinesterase activity.[43] Measurements were obtained in triplicate.

[6] = target: T2, Acetylcholinesterase (AChE) (Electrophorus electricus, UniProt O42275); assay: biochemical; details: for SI for AChE: Selectivity index: IC50 for BChE/IC50 for AChE; for IC50: mean ± SEM of three parallel measurements
T2 construct: Acetylcholinesterase (AChE) from electric eel; from tissue; host or cells: electric eel
T2 sequence (O42275 24-633): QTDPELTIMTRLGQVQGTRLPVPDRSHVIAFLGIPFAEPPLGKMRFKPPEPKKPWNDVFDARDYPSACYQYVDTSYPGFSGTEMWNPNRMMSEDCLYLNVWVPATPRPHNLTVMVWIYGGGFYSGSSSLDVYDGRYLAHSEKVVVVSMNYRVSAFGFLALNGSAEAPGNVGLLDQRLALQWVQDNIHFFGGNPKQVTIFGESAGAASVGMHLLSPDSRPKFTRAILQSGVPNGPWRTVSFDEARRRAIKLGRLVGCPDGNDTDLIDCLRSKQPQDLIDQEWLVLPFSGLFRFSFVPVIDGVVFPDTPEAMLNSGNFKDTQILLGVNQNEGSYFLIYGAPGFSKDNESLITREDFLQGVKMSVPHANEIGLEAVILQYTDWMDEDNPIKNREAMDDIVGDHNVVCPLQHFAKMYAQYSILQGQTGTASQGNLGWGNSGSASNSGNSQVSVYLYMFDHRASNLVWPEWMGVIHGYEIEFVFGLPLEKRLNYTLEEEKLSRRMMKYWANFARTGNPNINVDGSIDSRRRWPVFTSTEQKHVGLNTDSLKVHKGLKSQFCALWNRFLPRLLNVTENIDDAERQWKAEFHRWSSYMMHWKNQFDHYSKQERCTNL
Experimental: as §2

urease = urease (Canavalia ensiformis, UniProt P07374); assay: biochemical; details: urease activity IC50, mean ± SEM of three parallel measurements
urease, sequence (P07374 whole entry, looked up): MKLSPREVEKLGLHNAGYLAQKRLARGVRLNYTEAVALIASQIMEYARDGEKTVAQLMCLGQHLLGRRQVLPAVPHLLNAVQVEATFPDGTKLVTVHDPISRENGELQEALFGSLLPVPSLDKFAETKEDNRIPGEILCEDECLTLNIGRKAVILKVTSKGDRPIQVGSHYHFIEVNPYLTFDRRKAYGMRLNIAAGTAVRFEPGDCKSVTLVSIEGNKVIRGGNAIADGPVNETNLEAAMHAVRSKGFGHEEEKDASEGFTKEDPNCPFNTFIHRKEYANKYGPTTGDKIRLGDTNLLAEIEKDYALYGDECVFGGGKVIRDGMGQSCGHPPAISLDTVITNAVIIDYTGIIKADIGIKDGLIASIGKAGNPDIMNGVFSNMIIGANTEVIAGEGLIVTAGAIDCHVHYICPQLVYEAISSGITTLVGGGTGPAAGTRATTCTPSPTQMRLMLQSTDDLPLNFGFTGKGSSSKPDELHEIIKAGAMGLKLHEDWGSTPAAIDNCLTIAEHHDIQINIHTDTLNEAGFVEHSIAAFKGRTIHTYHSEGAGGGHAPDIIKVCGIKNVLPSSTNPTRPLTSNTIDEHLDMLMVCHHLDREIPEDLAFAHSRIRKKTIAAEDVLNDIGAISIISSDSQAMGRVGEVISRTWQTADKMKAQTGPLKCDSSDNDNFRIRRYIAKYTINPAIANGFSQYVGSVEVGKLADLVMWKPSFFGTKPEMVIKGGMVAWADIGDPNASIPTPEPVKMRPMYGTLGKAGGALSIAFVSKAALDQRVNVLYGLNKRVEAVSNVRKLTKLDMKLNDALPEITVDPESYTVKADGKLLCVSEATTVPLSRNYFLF

tyrosinase = type: biochemical; details: mean ± SEM of three parallel measurements

SMILES	IC50 [1] [µM]	IC50 [2] [µM]	IC50 [3] [µM]	CUPRAC assay A0.5 [4] [µM]	SI for BChE [5]	IC50 [5] [µM]	SI for AChE [6]	IC50 [6] [µM]	IC50 (urease) [µM]	IC50 (tyrosinase) [µM]
Cc1cc(C(C)(C)C)c(O)c(C(C)(C)C)c1 [BHT, butylated hydroxytoluene, reference compound]	55 ± 0.99	2.91 ± 0.55	2.34 ± 0.09	3.80 ± 0.02						
S=C(Nc1ccccc1)NN1CCOCC1 [Compound 1, 1-Morpholino-3-phenylthiyourea]	253.4 ± 0.6	48.9 ± 0.78	79.37 ± 0.38	45.18 ± 0.01	1.10	118.5 ± 0.34	0.91	130 ± 0.18	82.54 ± 0.29	35130 ± 70
O=C1CSC(=NN2CCOCC2)N1c1ccccc1 [Compound 2, 2-(Morpholinoimino)-3-phenylthiazolidin-4-one]	101.9 ± 0.61	31.66 ± 0.13	40.43 ± 0.11	36.35 ± 0.00	0.67	66.44 ± 0.41	1.50	44.3 ± 0.75	65.4 ± 0.67	30200 ± 610
O=C1C(=Cc2ccccc2)SC(=NN2CCOCC2)N1c1ccccc1 [Compound 3, 5-(Benzylidene)-2-(morpholinoimino)-3-phenylthiazolidine-4-one]	52.13 ± 0.29	31.59 ± 0.04	39.8 ± 0.67	35.89 ± 0.01	0.70	48.72 ± 0.18	1.42	34.2 ± 0.63	56.8 ± 0.15	29400 ± 490
O=C1C(=Cc2ccc(Br)cc2)SC(=NN2CCOCC2)N1c1ccccc1 [Compound 4, 5-(4-Bromobenzylidene)-2-(morpholinoimino)-3-phenylthiazolidine-4-one]	40.2 ± 0.77	23.7 ± 0.66	34.7 ± 0.15	21.18 ± 0.00	0.70	39.6 ± 0.74	1.43	27.7 ± 0.51	56.11 ± 0.22	28400 ± 900
O=C1C(=Cc2ccc(O)cc2)SC(=NN2CCOCC2)N1c1ccccc1 [Compound 5, 5-(4-Hydroxybenzaldehyde)-2-(morpholinoimino)-3 phenylthiazolidine-4-one]	42.8 ± 0.53	28.74 ± 0.19	36.2 ± 0.46	24.48 ± 0.02	0.73	37.1 ± 0.57	1.38	27 ± 0.48	55.6 ± 0.81	28000 ± 350
COc1ccc(C=C2SC(=NN3CCOCC3)N(c3ccccc3)C2=O)cc1 [Compound 6, 5-(4-(Methoxy)benzylidene)-2-(morpholinoimino)-3-phenylthiazolidin-4-one]	43.46 ± 0.14	30.6 ± 0.05	37.07 ± 0.22	32.68 ± 0.01	0.79	36.81 ± 0.19	1.27	29 ± 0.64	50.78 ± 0.08	27990 ± 170
COc1ccc(C=C2SC(=NN3CCOCC3)N(c3ccccc3)C2=O)cc1OC [Compound 7, 5-(3,4-Dimethoxy-benzylidene)-2-(morpholinoimino)-3-phenylthiazolidin-4-one]	43.91 ± 0.29	31.55 ± 0.22	38.24 ± 0.13	34.50 ± 0.01	0.75	40.88 ± 0.16	1.34	30.4 ± 0.47	54.3 ± 0.62	27720 ± 240
COc1cc(C=C2SC(=NN3CCOCC3)N(c3ccccc3)C2=O)cc(OC)c1OC [Compound 8, 5-(3,4,5-(Trimethoxy)benzylidene)-2-(morpholinoimino)-3-phenylthiazolidin-4-one]	44.06 ± 0.21	32.95 ± 0.28	36.5 ± 0.39	35.13 ± 0.03	0.71	47.3 ± 0.77	1.41	33.61 ± 0.33	53.4 ± 0.64	25700 ± 390
O=C1C(=Cc2ccc([N+](=O)[O-])cc2)SC(=NN2CCOCC2)N1c1ccccc1 [Compound 9, 5-(4-Nitrobenzylidene)-2-(morpholinoimino)-3-phenylthiazolidin-4-one]	32.3 ± 0.55	25.2 ± 0.37	30.44 ± 0.17	21.87 ± 0.01	0.74	40.19 ± 0.19	1.35	29.8 ± 0.81	51.7 ± 0.12	25420 ± 120
